Laboratory results as given in BindingDB's records for doi:10.7270/Q2TX3CTT (Broad Institute, 2010).

Target: Glycogen synthase kinase-3 beta (Homo sapiens, UniProt P49841)
Assay: GSK3beta kinase inhibitor potency, dose response, biochemical, luminescence, cell-free homogeneous, retest (AID 434954)

Chain of Glycogen synthase kinase-3 beta (P49841 whole entry): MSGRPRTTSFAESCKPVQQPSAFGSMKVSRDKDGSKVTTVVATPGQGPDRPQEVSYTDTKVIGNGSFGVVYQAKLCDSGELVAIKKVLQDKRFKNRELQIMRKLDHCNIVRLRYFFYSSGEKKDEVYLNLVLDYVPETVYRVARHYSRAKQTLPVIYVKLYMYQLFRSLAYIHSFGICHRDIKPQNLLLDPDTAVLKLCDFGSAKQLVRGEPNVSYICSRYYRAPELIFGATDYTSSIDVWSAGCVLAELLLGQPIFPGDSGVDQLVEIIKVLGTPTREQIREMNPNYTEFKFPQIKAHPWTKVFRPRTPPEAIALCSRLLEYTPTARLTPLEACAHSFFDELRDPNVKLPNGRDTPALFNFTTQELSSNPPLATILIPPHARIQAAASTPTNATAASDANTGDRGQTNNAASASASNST

Row | SMILES | EC50 [µM]
1 | O=c1[nH]nc(SCCS(=O)(=O)c2ccc(F)cc2)n1-c1ccc2c(c1)OCCO2 [SMR000456167] | 24.1
2 | O=C(Nc1cc(-c2ccccc2)n[nH]1)c1ccccc1 [SMR000459251] | > 300
3 | O=C(OCCCCOC(=O)c1ccccc1)c1ccccc1 [SMR000459786] | > 300
4 | COc1ccccc1NC(=S)NC1CCCCCCCCCCC1 [SMR000460399] | > 300
5 | CN=C(C)C(C(=O)OC)C(=O)c1ccc(Cl)cc1Cl (stereo not drawn) [SMR000461254] | > 300
6 | O=C(Nc1ccc(O)c2c(=O)cc(-c3ccccc3Cl)oc12)c1cccs1 [SMR000465219] | 16.7
7 | CCc1ccc(S(=O)(=O)Nc2ccc(O)c3c(=O)cc(-c4ccccc4Cl)oc23)cc1 [SMR000465243] | > 300
8 | CCC(=O)c1c(CC)c2n3c1CC[C@H]3CCC2 [SMR000469597] | > 300
9 | CC(C)=CCc1c(O)cc2c(=O)c3ccc(O)cc3oc2c1O [SMR000470963] | > 300
10 | Nc1nc(N)nc(-c2cc(Cl)ccc2Cl)n1 [SMR000471621] | > 300
11 | OC(COc1ccc(OCC(O)CN2CCN(Cc3ccccc3)CC2)cc1)CN1CCN(Cc2ccccc2)CC1 (stereo not drawn) [SMR000473226] | > 300
12 | O=C(O)c1ccccc1NCc1cccnc1 [SMR000473304] | > 300
13 | O=C(Nc1ccccn1)c1ccc(C(=O)Nc2ccccn2)cc1 [SMR000502618] | > 300
14 | O=C(O)c1cccc(CSc2nnc(-c3cccnc3)o2)c1 [SMR000503811] | > 300
15 | O=C(OCCN1CCOCC1)c1ccc(O)cc1 [SMR000513589] | > 300
16 | CC1(C)CC(=O)C2C(=Nc3ccccc3NC2c2ccc(F)cc2)C1 (stereo not drawn) [SMR000515995] | > 300
17 | COc1ccc(OC)c(C2Nc3ccccc3N=C3CC(C)(C)CC(=O)C32)c1 (stereo not drawn) [SMR000515998] | > 300
18 | COc1cc(OC)c(OC)cc1CNCC1COc2ccccc2O1 (stereo not drawn) [SMR000516658] | > 300
19 | COc1cc(C(=O)N2CCN(c3ccccn3)CC2)cc(OC)c1OC [SMR000518691] | 45.9
20 | COc1ccccc1/C=C1\C(=O)Nc2ccccc21 [SMR000523491] | > 300
21 | COc1ccc2occ(C(=O)c3ccc(N)cc3)c2c1 [SMR000539215] | 14.7
22 | O=C(O)Cn1cc(CN=Nc2ccc([N+](=O)[O-])cn2)c2ccccc21 [SMR000540193] | 8.24
23 | CCC(C)Nc1nc(N)c([N+](=O)[O-])c(NC2CCCCC2)n1 (stereo not drawn) [SMR000540397] | 2.39
24 | Nc1nc(NCCOCCO)nc(NC2CCCCC2)c1[N+](=O)[O-] [SMR000540405] | 3.01
25 | Nc1nc(O)c(N=Nc2ccc(S(N)(=O)=O)cc2)c(=O)[nH]1 [SMR000543013] | > 300
26 | CSc1nc(NCCCN(C)C)c2c3c(sc2n1)CN(C)CC3 [SMR000543143] | > 300
27 | COC(CSc1nc(N)c2c3c(sc2n1)CN(C)CC3)OC [SMR000543145] | > 300

Row | SMILES | EC50 [µM]
28 | COCCN(CCOC)Cc1c(O)ccc2c1O/C(=C\c1ccco1)C2=O [SMR000544009] | > 300
29 | O=C(O)Cn1c(=O)c2c3c(sc2n(Cc2ccccc2F)c1=O)CCCC3 [SMR000544593] | > 300
30 | N#Cc1c(Cl)nc(-c2ccncc2)nc1-c1ccccc1 [SMR000549420] | 15.2
31 | CN(C)c1nc(-c2cccnc2)nc(-c2ccccc2)c1C#N [SMR000549421] | > 300
32 | O=C1Nc2ccccc2Nc2ccc([N+](=O)[O-])cc21 [SMR000550741] | 25.4
33 | C[n+]1ccccc1C=Cc1cc(Br)ccc1O [SMR000554448] | > 300
34 | COc1ccc(CNCC2COc3ccccc3O2)cc1 (stereo not drawn) [SMR000588087] | > 300
35 | O=C(OCc1ccc(COC(=O)c2ccc(O)cc2)cc1)c1ccc(O)cc1 [SMR000588531] | > 300
36 | Cc1cc(=O)[nH]c(N=NCc2ccc(-c3ccc([N+](=O)[O-])cc3)o2)n1 [SMR000589712] | > 300
37 | NS(=O)(=O)c1ccc(N/N=C2\C(=O)Nc3ccc(Br)cc32)cc1 [SMR000592222] | > 300
38 | COc1ccc2nc(C)cc(N3CCN(c4ccccc4)CC3)c2c1 [SMR000595708] | 29.5
39 | COc1cccc(CNC(=O)C2CCN(S(=O)(=O)c3ccc(-n4cnnn4)cc3)CC2)c1 [SMR000600329] | > 300
40 | COc1ccc(CNC(=O)CN(Cc2ccco2)C(=O)CCC(=O)Nc2ccccn2)cc1 [SMR000600509] | > 300
41 | O=C(CCS(=O)(=O)c1ccccc1)Nc1ncc([N+](=O)[O-])s1 [SMR000605858] | > 300
42 | COc1ccc(C(=O)ON=C(N)c2ccccn2)cc1 [SMR000608101] | 13.2
43 | CCCN(CCC)Cc1c(C(=O)NN=Cc2ccsc2)nnn1-c1nonc1N [SMR000620321] | 4.13
44 | CCOc1ccccc1C=NNC(=O)c1nnn(-c2nonc2N)c1CN1CCC(C)CC1 [SMR000620330] | > 300
45 | CC1CCN(Cc2c(C(=O)NN=Cc3ccccc3O)nnn2-c2nonc2N)CC1 [SMR000620333] | 0.7
46 | Nc1nonc1-n1nnc(C(=O)NN=Cc2cc(Cl)ccc2O)c1CN1CCCCCC1 [SMR000620619] | 8.67
47 | Nc1nonc1-n1nnc(C(=O)NN=Cc2ccccc2Br)c1CN1CCCC1 [SMR000620637] | 1.57
48 | COc1ccc(-c2cc(C(=O)N3CCN(C(=O)c4ccco4)CC3)[nH]n2)cc1 [SMR000623613] | > 300
49 | CN1CCN(C(=O)CCS(=O)(=O)c2cc3c(cc2Cl)NC(=O)CO3)CC1 [SMR000627499] | > 300
50 | NC(=O)C1CCN(c2nc3c(S(=O)(=O)c4ccccc4)nnn3c3ccccc23)CC1 [SMR000629006] | > 300
51 | CCOc1ccc(CNC(=O)Cn2ccc3cc(S(=O)(=O)N4CCCCCC4)ccc32)cc1 [SMR000629622] | > 300
52 | COc1cccc(CNS(=O)(=O)c2cc(CN3C(=O)c4cccnc4C3=O)ccc2OC)c1 [SMR000630004] | > 300
53 | Cc1ccc(NC(=O)C2CCN(S(=O)(=O)c3ccc4c(c3)NC(=O)C(C)S4)CC2)c(Cl)c1 (stereo not drawn) [SMR000630224] | > 300
54 | CCOC(=O)c1ccc(NS(=O)(=O)c2ccc3c(c2)NC(=O)CCS3)cc1 [SMR000630284] | > 300

Other lines, results leading:

Row | EC50 [µM] | SMILES
55 | > 300 | Cc1cc(N2CCN(C(=O)c3ccco3)CC2)c2ccccc2n1 [SMR000460267]
56 | 5.38 | CCC(C)Oc1cc(-c2ccnc(Nc3cccc(Cl)c3)n2)ccn1 (stereo not drawn) [SMR000463563]
57 | 12.2 | CN(C)CCCNc1ccc(-c2cc(Nc3cccc(Cl)c3)ncn2)cn1 [SMR000463569]
58 | > 300 | CCOc1ccccc1Nc1cc(C)nc2ccc(C)cc12 [SMR000473096]
59 | > 300 | COc1cc(C2C(C(=O)c3cccs3)C(=O)C(=O)N2CCN2CCOCC2)ccc1OCCC(C)C (stereo not drawn) [SMR000476070]
60 | > 300 | CC(C)(C)c1csc(NC(=O)c2cccnc2)n1 [SMR000496644]
61 | > 300 | Cc1cc(OCCCn2ccnc2)ccc1[N+](=O)[O-] [SMR000497363]
62 | > 300 | COc1ccc(CCNc2nc(-c3ccc(O)cc3)cs2)cc1OC [SMR000502906]
63 | 47.2 | O=C(Nc1ccc(Cl)c(Cl)c1)Nc1ccccn1 [SMR000515062]
64 | > 300 | Cc1cc(C)n(S(=O)(=O)c2ccc(C)c(C)c2)n1 [SMR000515396]
65 | > 300 | CC(=O)c1cccc(Nc2nc(-c3ccccc3)nc3ccccc23)c1 [SMR000516691]
66 | > 300 | Cc1ccc(C(=O)/C=C/c2ccc3ncccc3c2)cc1 [SMR000516943]
67 | > 300 | COc1ccc(C=C2SC(Nc3ccccc3OC)=NC2=O)cc1 [SMR000517219]
68 | > 300 | CCOC(=O)c1cnc2ccc(OC)cc2c1NCCN1CCOCC1 [SMR000518517]
69 | > 300 | CCCNC(=O)c1ccc(Cl)cc1Cl [SMR000528064]
70 | > 300 | CC(=O)Nc1ccc(Cc2nc3c([nH]2)c(=O)n(C)c(=O)n3C)cc1 [SMR000528148]
71 | > 300 | O=C(O)c1cccc(Nc2nc(-c3ccccc3)nc3ccccc23)c1 [SMR000538934]
72 | 11.2 | Cc1ccc(C(=O)c2coc3ccc(O)cc23)cc1 [SMR000539213]
73 | > 300 | CC(C)N1C(=O)N(c2ccc(Cl)cc2)C(C)(O)CC1(C)C (stereo not drawn) [SMR000539554]
74 | > 300 | CCCC(=O)Nc1nn(CC(C)C)c2nc3cc(C)ccc3cc12 [SMR000540561]

Row | EC50 [µM] | SMILES
75 | > 300 | COc1ccccc1Nc1nc(N(C)c2ccccc2)nc(N)c1[N+](=O)[O-] [SMR000542836]
76 | > 300 | CCn1nc(NC(=O)CC(C)C)c2cc3cccc(C)c3nc21 [SMR000542878]
77 | > 300 | Cc1ccc2c(CN3CCN(Cc4ccccc4)CC3)cc(=O)oc2c1C [SMR000543581]
78 | > 300 | COc1ccc(C(=O)/C=C2/C(=O)Nc3ccccc32)c(OC)c1 [SMR000543845]
79 | > 300 | CC(C)Nc1nc(-c2ccncc2)nc(-c2ccccc2)c1C#N [SMR000549424]
80 | > 300 | CC(C)c1ccc(NC2=CC(=O)CC(C)(C)C2)cc1 [SMR000558851]
81 | > 300 | CC(C(=O)NCc1ccccc1)n1cc([N+](=O)[O-])cn1 (stereo not drawn) [SMR000559338]
82 | > 300 | Cc1nc(Nc2ccccc2)sc1C(=O)c1ccc(F)cc1 [SMR000567585]
83 | 6.85 | O=C(c1ccccc1)c1ccc(NCCCn2ccnc2)c([N+](=O)[O-])c1 [SMR000588423]
84 | > 300 | COCCn1c(SCC(=O)NC(C)c2ccccc2)nc2ccccc21 (stereo not drawn) [SMR000590006]
85 | > 300 | OC(CNc1nc(-c2cccnc2)nc2ccccc12)c1ccccc1 (stereo not drawn) [SMR000592049]
86 | 52.5 | COc1ccc(CNC(=O)CN(Cc2ccc(OC)cc2)C(=O)CCC(=O)Nc2ccccn2)cc1 [SMR000600506]
87 | > 300 | CCn1c(SCC(=O)Nc2ccc(N(C)C)cc2)nnc1C1CC1 [SMR000601384]
88 | > 300 | CCN(CC)Cc1c(C(=O)NN=Cc2c(Cl)cccc2Cl)nnn1-c1nonc1N [SMR000620609]
89 | > 300 | COc1cccc(/C=C2\Sc3ccc(C(=O)NCC4CCCO4)cc3N(C)C2=O)c1 (stereo not drawn) [SMR000622267]
90 | > 300 | CCc1nn(CC(=O)NCCCc2ccccc2)c(=O)c2cc3c(OC)cccc3n12 [SMR000624506]
91 | > 300 | COc1ccc2c(c1)cc1c(=O)n(CC(=O)NCCCN3CCOCC3)nc(C)n12 [SMR000624522]
92 | > 300 | CCOc1ccccc1CNC(=O)CCn1ccc2cc(S(=O)(=O)N3CCCCC3)ccc21 [SMR000629632]
93 | > 300 | CCOC(=O)c1c(C)[nH]c(C)c1S(=O)(=O)N(C)CC(=O)Nc1ccccc1 [SMR000630545]
